Like-named read-outs stand apart in the source and are kept apart here.
What was measured:
[1] = system: Echinochloa caudate; experiment: Post-emergence foliage spray, pot culture, fresh weight inhibition (Tables 1-48, 51-98, 101-148; 24 days); format: in vivo
Experimental: (§1) The above weeds were cultivated by a pot culture method. […] Full and uniform weed seeds were selected, soaked in warm water at 25° C. for 6 hours, and germinated in a 28° C. biochemical incubator (darkness). The weed seeds that had just germinatedwere evenly placed on the surface of the soil and then covered with 0.5-1 cm soil according to the sizes of seeds.
(§2) The technical materials were all dissolved in acetone, and diluted with an aqueous solution containing 0.1% emulsifier Tween-80. The dilution is performed as required.
(§3) A ratio of the active ingredient A to the active ingredient B and amounts thereof in each group depends on the characteristics and toxicity of the two agents, as well as the main application purpose of a corresponding formulation. Based on the pre-tests in this study, the dosage of the active ingredient A and B applied alone and in combination were shown in the tables. Water containing the solvent and emulsifier same with the above groups but free of the agents was used as a blank control.
(§4) In the stage of weeds with 3˜4 leaves, the weeds were thinned out to maintain 15 weeds per pot and 45 weeds for each treatment, then continued to be cultured to 5˜6 leaves stage of grassy weeds, 6˜7 leaves stage of broadleaf weeds, and treated.
(§5) The well-cultured weeds were evenly placed on a platform with an area of 0.5 m^2, and a solution of agents was sprayed on the stems and leaves thereof by the 3WP-2000-type walking spray tower at a dosage of 450 kg/ha and at a spray pressure of 0.3 MPa. After all the solution was sprayed, the valve was closed. After 30 seconds, the door of the spray tower was opened, and the nutritional bowl was taken out. Then the valve was opened, and the spray tube was cleaned by spraying 50 ml of water.
(§6) A pot-culture method was employed. For the cultivation of weeds, please refer to the Section 1.1), and “Pesticide guidelines for laboratory bioactivity tests—herbicides”. As to a method for applying agents, please refer to the section 2.3.2), that is, a foliage treatment was employed. After the treatment, the weeds were routinely cultured in a greenhouse.
(§7) A method for investigating absolute number was employed, wherein whole seedlings of survival weeds were cut off with a blade along the soil surface, and the fresh weight of the weeds was weighed with an analytical balance. For dead weeds, the fresh weight thereof was zero.
(§8) Wherein, in the formula, X represented the fresh weight inhibition rate of the active ingredient A in a dosage of P, and Y represented the fresh weight inhibition rate of the active ingredient B in a dosage of Q.

[2] = system: Echinochloa oryzoides; experiment: as above; format: in vivo
Experimental: as §1, §2, §3, §4, §5, §6, §7, §8

[3] = Echinochloa, 576 h, read-out: Control effect (%) of B applied alone in corresponding dose
[4] = Echinochloa oryzoides, 576 h, read-out: Control effect (%) of B applied alone in corresponding dose

With `CCCCOC(=O)[C@@H](C)Oc1ccc(Oc2ccc(C(F)(F)F)cn2)cc1` [fluazifop-P-butyl] the “Control effect (%) of B applied alone in corresponding dose” value (“Control effect (%) of B applied alone” for short) ([1]; fluazifop-P-butyl 3.75 g a.i./ha) was 4.2%, the “Control effect (%) of B applied alone” value ([1]; fluazifop-P-butyl 7.5 g a.i./ha) was 13.9% and the “Control effect (%) of B applied alone” value ([1]; fluazifop-P-butyl 15 g a.i./ha) was 38.4%. For the same molecule, the “Control effect (%) of B applied alone” value ([1]; fluazifop-P-butyl 30 g a.i./ha) was 74.1%, the “Control effect (%) of B applied alone” value ([2]; B 3.75 g a.i./ha) was 5.5% and the “Control effect (%) of B applied alone” value ([2]; B 7.5 g a.i./ha) was 14.2%. The “Control effect (%) of B applied alone” value ([2]; B 15 g a.i./ha) was 32.9% and the “Control effect (%) of B applied alone” value ([2]; B 30 g a.i./ha) was 71.5%.
For `COC(=O)[C@@H](C)Oc1ccc(Oc2ncc(C(F)(F)F)cc2Cl)cc1` [haloxyfop-P-methyl], the “Control effect (%) of B applied alone” value ([1]; haloxyfop-P-methyl 3.75 g a.i./ha) was 3.0%, the “Control effect (%) of B applied alone” value ([1]; haloxyfop-P-methyl 7.5 g a.i./ha) was 15.6% and the “Control effect (%) of B applied alone” value ([1]; haloxyfop-P-methyl 15 g a.i./ha) was 40.2%. The “Control effect (%) of B applied alone” value ([1]; haloxyfop-P-methyl 30 g a.i./ha) was 73.4%, the “Control effect (%) of B applied alone” value ([2]; B 3.75 g a.i./ha) was 7.9% and the “Control effect (%) of B applied alone” value ([2]; B 7.5 g a.i./ha) was 19.0%. For the same molecule, the “Control effect (%) of B applied alone” value ([2]; B 15 g a.i./ha) was 30.4% and the “Control effect (%) of B applied alone” value ([2]; B 30 g a.i./ha) was 66.9%.
`CS(=O)(=O)c1cc(C(F)(F)F)ccc1C(=O)c1cnoc1C1CC1` [isoxaflutole] showed a pest or weed control at 7.5 g/ha ([1]; Echinochloa, 576 h, Table 85, 7.5 g a.i./ha, read-out: Control effect (%) of B applied alone in corresponding dose) of 2.1%, a pest or weed control at 15 g/ha ([1]; Echinochloa, 576 h, Table 85, 15 g a.i./ha, read-out: Control effect (%) of B applied alone in corresponding dose) of 14.3% and a pest or weed control at 30 g/ha ([1]; Echinochloa, 576 h, Table 85, 30 g a.i./ha, read-out: Control effect (%) of B applied alone in corresponding dose) of 47.9%. The pest or weed control at 60 g/ha ([1]; Echinochloa, 576 h, Table 85, 60 g a.i./ha, read-out: Control effect (%) of B applied alone in corresponding dose) was 63.6%, the pest or weed control at 7.5 g/ha ([2]; Echinochloa oryzoides, 576 h, B 7.5 g a.i./ha, read-out: Control effect (%) of B applied alone in corresponding dose) was 8.1% and the pest or weed control at 15 g/ha ([2]; Echinochloa oryzoides, 576 h, B 15 g a.i./ha, read-out: Control effect (%) of B applied alone in corresponding dose) was 19.6%. For the same molecule, the pest or weed control at 30 g/ha ([2]; Echinochloa oryzoides, 576 h, B 30 g a.i./ha, read-out: Control effect (%) of B applied alone in corresponding dose) was 50.6% and the pest or weed control at 60 g/ha ([2]; Echinochloa oryzoides, 576 h, B 60 g a.i./ha, read-out: Control effect (%) of B applied alone in corresponding dose) was 65.5%.
Molecule `CCC(=O)Nc1ccc(Cl)c(Cl)c1` [propanil] has a pest or weed control at 75 g/ha ([1]; Echinochloa, 576 h, propanil 75 g a.i./ha, read-out: Control effect (%) of B applied alone in corresponding dose) of 3.8%, a pest or weed control at 150 g/ha ([1]; Echinochloa, 576 h, propanil 150 g a.i./ha, read-out: Control effect (%) of B applied alone in corresponding dose) of 21.1% and a pest or weed control at 300 g/ha ([1]; Echinochloa, 576 h, propanil 300 g a.i./ha, read-out: Control effect (%) of B applied alone in corresponding dose) of 36.4%. It also gave a pest or weed control at 600 g/ha ([1]; Echinochloa, 576 h, propanil 600 g a.i./ha, read-out: Control effect (%) of B applied alone in corresponding dose) of 52.5%, a pest or weed control at 75 g/ha ([2]; Echinochloa oryzoides, 576 h, B 75 g a.i./ha, read-out: Control effect (%) of B applied alone in corresponding dose) of 7.6% and a pest or weed control at 150 g/ha ([2]; Echinochloa oryzoides, 576 h, B 150 g a.i./ha, read-out: Control effect (%) of B applied alone in corresponding dose) of 19.9%. It also gave a pest or weed control at 300 g/ha ([2]; Echinochloa oryzoides, 576 h, B 300 g a.i./ha, read-out: Control effect (%) of B applied alone in corresponding dose) of 37% and a pest or weed control at 600 g/ha ([2]; Echinochloa oryzoides, 576 h, B 600 g a.i./ha, read-out: Control effect (%) of B applied alone in corresponding dose) of 53.9%.
With `COC(=O)[C@@H](C)Oc1ccc(Oc2cnc3cc(Cl)ccc3n2)cc1` [quizalofop-P-methyl] the “Control effect (%) of B applied alone” value ([1]; quizalofop-P-methyl 3.75 g a.i./ha) was 3.4%, the “Control effect (%) of B applied alone” value ([1]; quizalofop-P-methyl 7.5 g a.i./ha) was 12.2% and the “Control effect (%) of B applied alone” value ([1]; quizalofop-P-methyl 15 g a.i./ha) was 40.8%. For the same molecule, the “Control effect (%) of B applied alone” value ([1]; quizalofop-P-methyl 30 g a.i./ha) was 72.1%, the “Control effect (%) of B applied alone” value ([2]; B 3.75 g a.i./ha) was 5.9% and the “Control effect (%) of B applied alone” value ([2]; B 7.5 g a.i./ha) was 14.6%. The “Control effect (%) of B applied alone” value ([2]; B 15 g a.i./ha) was 38.6% and the “Control effect (%) of B applied alone” value ([2]; B 30 g a.i./ha) was 63.3%.
Molecule `CCC/C(=N\OCC)C1=C(O)CC(CC(C)SCC)CC1=O` (centres unmarked) [sethoxydim] has a pest or weed control at 15 g/ha [1, 3] of 5.1%, a pest or weed control at 30 g/ha [1, 3] of 21.5% and a pest or weed control at 60 g/ha [1, 3] of 42.6%. The pest or weed control at 120 g/ha [1, 3] was 61.6%, the pest or weed control at 15 g/ha [2, 4] was 5.5% and the pest or weed control at 30 g/ha [2, 4] was 13.8%. For the same molecule, the pest or weed control at 60 g/ha [2, 4] was 35.4% and the pest or weed control at 120 g/ha [2, 4] was 68.4%.
Work on `COC(=O)c1ccccc1S(=O)(=O)NC(=O)Nc1nc(C)cc(C)n1` [sulfometuron-methyl] yielded a pest or weed control at 9.375 g/ha [1, 3] of 3.8%, a pest or weed control at 18.75 g/ha [1, 3] of 13.9% and a pest or weed control at 37.5 g/ha [1, 3] of 24.6%. It also gave a pest or weed control at 75 g/ha [1, 3] of 52.7%, a pest or weed control at 9.375 g/ha [2, 4] of 3.2% and a pest or weed control at 18.75 g/ha [2, 4] of 12.6%. It also gave a pest or weed control at 37.5 g/ha [2, 4] of 38% and a pest or weed control at 75 g/ha [2, 4] of 53.8%.

From patent US20220264878A1, “HERBICIDAL COMPOSITION CONTAINING R-TYPE PYRIDYLOXY CARBOXYLIC ACID DERIVATIVE AND USE THEREOF” (Qingdao Kingagroot Chemical Compound Co., Ltd., priority 2019, published 2022)
